Measurements reported in patent publication US20250295639A1, “METHODS FOR TREATING HEART DISEASES” (Cytokinetics, Incorporated, priority 2024, published 2025).
Where “and” joins values, the source holds several entries; their conditions need not be identical. Equal entries are not always repeated.

System: patients with symptomatic oHCM
Experiment: SEQUOIA-HCM: cardiopulmonary exercise testing (CPET), incl. by baseline beta blocker use
Format: in vivo, human
Description: The primary objective of this trial was to evaluate the effect of aficamten on exercise capacity in patients with symptomatic oHCM. The indicated endpoint was a change in peak oxygen uptake (pVO2) by cardiopulmonary exercise testing (CPET) from baseline to Week 24. A further secondary objective was to evaluate the effect of aficamten on exercise capacity, as determined by change in total workload during CPET from baseline to Week 24. A further exploratory objective of this trial was to evaluate the effect of aficamten on other CPET parameters, as determined by changes from baseline to Week 24 in: (1) ventilator efficiency (VE/VCO2 slope); (2) circulatory power (VO2× systolic BP); and (3) ventilator anaerobic threshold (VAT). Cardiopulmonary Exercise Testing (CPET). All patients underwent CPET with gas-exchange analysis and the methodology will be standardized across all participating sites, as described in the CPET manual. Testing included continuous ECG monitoring by trained personnel and was performed in an area that was equipped for cardiopulmonary resuscitation. Treadmill was the preferred modality for exercise testing. […] Exercise protocols for both modalities were provided in the CPET manual. Patients had to use the same testing modality for all exercise tests during the trial. Whenever possible, CPET was administered by the same trial personnel using the same equipment and performed after the other trial procedures on that visit day (including echocardiogram, KCCQ, EQ-5D-5L, CGI, PGI-C, NYHA class, SAQ-7, vital signs, ECG, blood sampling, IP administration). Patients naïve to exercise protocols were familiarized with the technique during screening. All CPET testing was symptom-limited and patients were strongly encouraged to achieve maximal exertion and an RER ≥1.05. The reason(s) for termination of sub-maximal exercise tests were documented. A test was identified as being maximal effort if the RER is ≥1.05. The Week 24 CPET was performed at approximately the same time of day (eg, morning, mid-day, afternoon) as the baseline CPET at screening, at a consistent time after the last dose of beta blocker and IP. Whenever possible, patients performed exercise testing between three and ten hours after taking beta blocking agents. CPET End Points. We looked at whether aficamten would improve a novel measure of integrated exercise performance that combines complementary measures previously independently related to oHCM prognosis, and that incorporates both submaximal and maximal exercise capacity. A primary outcome was the change from baseline to week 24 in integrated exercise performance, defined as the 2-component Z-score of pVO2 and ventilatory efficiency (VE/VCO2 slope). Response rates for achieving clinically meaningful thresholds for change in pVO2 and correlations with clinical measures of treatment effect (health status, echocardiographic, cardiac biomarkers) were also assessed. The primary analysis was the change from baseline to Week 24 in integrated exercise performance, normalized to a composite of Z-scores for pVO2 and VE/VCO2 slope to capture physiologic responses to maximal and submaximal exercise. The Z-score was derived by reversing the directionality of VE/VCO2 slope such that increases in both Z-score components indicate benefit and equal weights were used for each Z-score component. Secondary end points included assessments for changes from baseline to week 24 in CPET-derived measures during 2 phases of exercise performance: (1) peak exercise (pVO2, peak workload, peak metabolic equivalents [METS], peak circulatory power [VO2× systolic blood pressure], exercise duration, peak respiratory exchange ratio [RER], heart rate reserve, peak heart rate, O2 pulse at peak exercise, proportionate pulse pressure); and (2) during submaximal exercise (pre-anaerobic threshold VE/VCO2 slope, VE/VCO2 slope throughout exercise, ventilatory power, ventilatory anaerobic threshold, and aerobic efficiency). Beta Blocker Co-administration. […]

[1] = Aficamten arm, change baseline to week 24
[2] = Baseline Beta Blocker Use: No, Week 24
[3] = Baseline Beta Blocker Use: Yes, Week 24
[4] = aficamten versus placebo, 24 weeks
[5] = patients treated with aficamten

CCc1nc(-c2ccc3c(c2)CC[C@H]3NC(=O)c2cnn(C)c2)no1 [aficamten, (R)—N-(5-(5-ethyl-1,2,4-oxadiazol-3-yl)-2,3-dihydro-1H-inden-1-yl)-1-methyl-1H-pyrazole-4-carboxamide]
Aerobic efficiency (Aficamten arm, Week 24): 8.6 mL/min/watt
Exercise duration (Aficamten arm, Week 24): 12.4 min
Heart rate reserve (Aficamten arm, Week 24): 66
Integrated 2 component Z-score metric (Aficamten arm, Week 24): 0.16
Peak circulatory power (Aficamten arm, Week 24): 3550 mmHg*mL/min/kg
Peak heart rate (Aficamten arm, Week 24): 135 beats/min
Peak respiratory exchange ratio (Aficamten arm, Week 24): 1.20
Peak workload (Aficamten arm, Week 24): 134 watt
Proportionate pulse pressure (peak) (Aficamten arm, Week 24): 0.51
Proportionate pulse pressure (rest) (Aficamten arm, Week 24): 0.37
Ventilatory anaerobic threshold (Aficamten arm, Week 24): 958 mL
Ventilatory efficiency pre-anaerobic threshold (VE/VCO2 slope) (Aficamten arm, Week 24): 27.4
Ventilatory efficiency throughout exercise (VE/VCO2 slope) (Aficamten arm, Week 24): 30.9
Ventilatory power (Aficamten arm, Week 24): 5.9 mmHg
pVO2 (Aficamten arm, Week 24): 20.2 mL/kg/min
Aerobic efficiency, Abs. diff. [1]: 0.3 mL/min/watt
Exercise duration, Abs. diff. [1]: 1.2 min
Heart rate reserve, Abs. diff. [1]: 7
Integrated 2 component Z-score metric, Abs. diff. [1]: +0.17±0.51
O2 pulse at peak exercise, Abs. diff. [1]: 0.00 mL/beat
Peak circulatory power, Abs. diff. [1]: 537 mmHg*mL/min/kg
Peak heart rate, Abs. diff. [1]: 8 beats/min
Peak respiratory exchange ratio, Abs. diff. [1]: 0.01
Peak workload, Abs. diff. [1]: 14 watt
Proportionate pulse pressure (peak), Abs. diff. [1]: 0.02
Proportionate pulse pressure (rest), Abs. diff. [1]: −0.02
Ventilatory anaerobic threshold, Abs. diff. [1]: 60 mL
Ventilatory efficiency pre-anaerobic threshold (VE/VCO2 slope), Abs. diff. [1]: −1.9
Ventilatory efficiency throughout exercise (VE/VCO2 slope), Abs. diff. [1]: −2.2
Ventilatory power, Abs. diff. [1]: 0.8 mmHg
pVO2, Abs. diff. [1]: 1.8 mL/kg/min
Integrated 2 component Z-score metric, Abs. diff. (Aficamten arm, change baseline to week 24, listed as Aficamten): 0.17
patients with Any Deterioration (small/moderate/large) in pVO2 (Aficamten, 24 weeks): (26.1%)
patients with Any Deterioration (small/moderate/large) in pVO2, number (Aficamten, 24 weeks): 37
patients with Any Improvement (small/moderate/large) in pVO2 (Aficamten, 24 weeks): (73.9%)
patients with Any Improvement (small/moderate/large) in pVO2, number (Aficamten, 24 weeks): 105
patients with Large Improvement in pVO2 (≥3.0 mL/kg/min) (Aficamten, 24 weeks): 32%
patients with Large Improvement in pVO2 (≥3.0 mL/kg/min), number (Aficamten, 24 weeks): 46
patients with Moderate/Large Improvement in pVO2 (≥1.5 mL/kg/min) (Aficamten, 24 weeks): (52.8%)
patients with Moderate/Large Improvement in pVO2 (≥1.5 mL/kg/min), number (Aficamten, 24 weeks): 75
patients with Large Improvement in pVO2 (≥3.0 mL/kg/min) (Aficamten, 24 weeks, listed as Aficamten): (32.4%)
Change in Exercise Duration on CPET from Baseline to Week 24, LS Mean (SE) (Baseline Beta Blocker Use: No): 1.2 (0.26) minutes
Change in Exercise Duration on CPET from Baseline to Week 24, LS Mean Diff vs. Placebo (SE) (Baseline Beta Blocker Use: No): 1.1 (0.38) minutes
Change in Exercise Duration on CPET from Baseline to Week 24, Mean (SD) (Baseline Beta Blocker Use: No): 1.3 (2.34) minutes
Change in Exercise Duration on CPET from Baseline to Week 24, Median (Baseline Beta Blocker Use: No): 1.1 min
Change in peak METs from Baseline to Week 24, LS Mean (SE) (Baseline Beta Blocker Use: No): 0.62 (0.113) METs
Change in peak METs from Baseline to Week 24, LS Mean Diff vs. Placebo (SE) (Baseline Beta Blocker Use: No): 0.55 (0.162) METs
Change in peak METs from Baseline to Week 24, Mean (SD) (Baseline Beta Blocker Use: No): 0.65 (1.029) METs
Change in peak METs from Baseline to Week 24, Median (Baseline Beta Blocker Use: No): 0.47 METs
Exercise Duration on CPET, Baseline, Mean (SD) (Baseline Beta Blocker Use: No): 11.0 (3.52) minutes
Exercise Duration on CPET, Baseline, Median (Baseline Beta Blocker Use: No): 10.3 min
peak METs (pVO2/3.5 (mL/kg/min)) on CPET, Baseline, Mean (SD) (Baseline Beta Blocker Use: No): 5.27 (1.314) METs
peak METs (pVO2/3.5 (mL/kg/min)) on CPET, Baseline, Median (Baseline Beta Blocker Use: No): 5.11 METs
Exercise Duration on CPET, Week 24, Mean (SD) [2]: 12.2 (4.39) minutes
Exercise Duration on CPET, Week 24, Median [2]: 11.3 min
peak METs (pVO2/3.5 (mL/kg/min)) on CPET, Week 24, Mean (SD) [2]: 5.89 (1.481) METs
peak METs (pVO2/3.5 (mL/kg/min)) on CPET, Week 24, Median [2]: 5.66 METs
Change in Exercise Duration on CPET from Baseline to Week 24, LS Mean (SE) (Baseline Beta Blocker Use: Yes): 1.0 (0.22) minutes
Change in Exercise Duration on CPET from Baseline to Week 24, LS Mean Diff vs. Placebo (SE) (Baseline Beta Blocker Use: Yes): 0.9 (0.30) minutes
Change in Exercise Duration on CPET from Baseline to Week 24, Mean (SD) (Baseline Beta Blocker Use: Yes): 1.1 (1.98) minutes
Change in Exercise Duration on CPET from Baseline to Week 24, Median (Baseline Beta Blocker Use: Yes): 0.5 min
Change in peak METs from Baseline to Week 24, LS Mean (SE) (Baseline Beta Blocker Use: Yes): 0.40 (0.093) METs
Change in peak METs from Baseline to Week 24, LS Mean Diff vs. Placebo (SE) (Baseline Beta Blocker Use: Yes): 0.46 (0.130) METs
Change in peak METs from Baseline to Week 24, Mean (SD) (Baseline Beta Blocker Use: Yes): 0.41 (0.781) METs
Change in peak METs from Baseline to Week 24, Median (Baseline Beta Blocker Use: Yes): 0.31 METs
Exercise Duration on CPET, Baseline, Mean (SD) (Baseline Beta Blocker Use: Yes): 11.4 (2.55) minutes
Exercise Duration on CPET, Baseline, Median (Baseline Beta Blocker Use: Yes): 11.1 min
peak METs (pVO2/3.5 (mL/kg/min)) on CPET, Baseline, Mean (SD) (Baseline Beta Blocker Use: Yes): 5.24 (1.251) METs
peak METs (pVO2/3.5 (mL/kg/min)) on CPET, Baseline, Median (Baseline Beta Blocker Use: Yes): 5.28 METs
Exercise Duration on CPET, Week 24, Mean (SD) [3]: 12.5 (3.61) minutes
Exercise Duration on CPET, Week 24, Median [3]: 12.4 min
peak METs (pVO2/3.5 (mL/kg/min)) on CPET, Week 24, Mean (SD) [3]: 5.70 (1.497) METs
peak METs (pVO2/3.5 (mL/kg/min)) on CPET, Week 24, Median [3]: 5.64 METs
patients with large pVO2 deteriorations/reductions (≥3.0 mL/kg/min) (aficamten group, 24 weeks): 2%
Any Deterioration in pVO2, NNT [4]: −3.8
Any Deterioration in pVO2, OR [4]: 0.32
Any Deterioration in pVO2, Risk Difference [4]: −26%
Any Improvement in pVO2, NNT [4]: 3.8 and < 4
Any Improvement in pVO2, OR [4]: 3.09
Any Improvement in pVO2, Risk Difference [4]: +26%
Large Improvement in pVO2, NNT [4]: 6.3
Large Improvement in pVO2, OR [4]: 2.44
Large Improvement in pVO2, Risk Difference [4]: +15.%
Moderate/Large Improvement in pVO2, NNT [4]: 4.7
Moderate/Large Improvement in pVO2, OR [4]: 2.44
Moderate/Large Improvement in pVO2, Risk Difference [4]: +21%
Any Improvement in pVO2, NNT (aficamten versus placebo, 24 weeks, listed as Aficamten): 3.8
Aerobic efficiency, Adjusted difference (LS mean treatment difference) (aficamten vs placebo, week 24): 0.2 mL/min/watt
Exercise duration, Adjusted difference (LS mean treatment difference) (aficamten vs placebo, week 24): 1.0 min
Heart rate reserve, Adjusted difference (LS mean treatment difference) (aficamten vs placebo, week 24): 6
Integrated 2 component Z-score metric, Adjusted difference (LS mean treatment difference) (aficamten vs placebo, week 24): +0.35
O2 pulse at peak exercise, Adjusted difference (LS mean treatment difference) (aficamten vs placebo, week 24): 0.003 mL/beat
Peak circulatory power, Adjusted difference (LS mean treatment difference) (aficamten vs placebo, week 24): 586 mmHg*mL/min/kg
Peak heart rate, Adjusted difference (LS mean treatment difference) (aficamten vs placebo, week 24): 9 beats/min
Peak respiratory exchange ratio, Adjusted difference (LS mean treatment difference) (aficamten vs placebo, week 24): 0.00
Peak workload, Adjusted difference (LS mean treatment difference) (aficamten vs placebo, week 24): 12 watt
Proportionate pulse pressure (peak), Adjusted difference (LS mean treatment difference) (aficamten vs placebo, week 24): 0.01
Proportionate pulse pressure (rest), Adjusted difference (LS mean treatment difference) (aficamten vs placebo, week 24): −0.01
Ventilatory anaerobic threshold, Adjusted difference (LS mean treatment difference) (aficamten vs placebo, week 24): 59 mL
Ventilatory efficiency pre-anaerobic threshold (VE/VCO2 slope), Adjusted difference (LS mean treatment difference) (aficamten vs placebo, week 24): −1.5
Ventilatory efficiency throughout exercise (VE/VCO2 slope), Adjusted difference (LS mean treatment difference) (aficamten vs placebo, week 24): −2.3
Ventilatory power, Adjusted difference (LS mean treatment difference) (aficamten vs placebo, week 24): 0.9 mmHg
pVO2, Adjusted difference (LS mean treatment difference) (aficamten vs placebo, week 24): 1.7 mL/kg/min
Integrated 2 component Z-score metric, Adjusted difference (LS mean treatment difference) (aficamten vs placebo, week 24, listed as Aficamten): 0.35
improvement in Exercise Duration on CPET: influence of beta blockers (baseline to Week 24): not significantly diminished by the use of beta blockers
improvement in peak metabolic equivalents (peak METs) on CPET: influence of beta blockers (baseline to Week 24): not significantly diminished by the use of beta blockers
times less likely to experience worsening of pVO2 than those on placebo (categorical threshold analyses): more than 5 times
patients who experienced an improvement in pVO2 [5]: 72.2%
patients with large improvement (≥3.0 mL/kg/min) in pVO2 [5]: 27.8%
patients with moderate improvement (≥1.5 to <3.0 mL/kg/min) in pVO2 [5]: 21.8%
patients with small improvement (0 to <1.5) in pVO2 [5]: 22.6%
LSM difference in pVO2 (95% CI) (patients who were also on beta blockers): 1.6 (0.7 to 2.5) mL/kg/min
LSM difference in pVO2 (95% CI) (patients who were not on beta blockers): 1.9 (0.8 to 3.1) mL/kg/min
